Reference: paper PMC6396940, “EhFP10: A FYVE family GEF interacts with myosin IB to regulate cytoskeletal dynamics during endocytosis in Entamoeba histolytica” (PLoS Pathogens, 2019)
Ends that are not written are not given here.

Tests used:
[1] = molecular target: EhMySH3 (SH3 domain of EhMyosin IB) (Entamoeba histolytica, UniProt C4LUC7); assay: SPR binding of peptides to immobilized EhMySH3 (Autolab SPR); settings: for relative SPR binding response: 0.8 mM of each peptide passed over immobilized EhMySH3, compared with the other peptides; for Kd: SPR kinetic analysis, peptide passed over immobilized EhMySH3, 10 mM HEPES, 150 mM NaCl, 3 mM EDTA, 0.05% NP-40, pH 7.4, 25°C, text: values could not be calculated accurately (peptides about 1000 Da), read-out: Binding affinity (KD, equilibrium dissociation constant)
Procedure: For binding studies of EhMySH3 with peptides, an Autolab SPR apparatus was used at the Advanced Instrumentation Research Facility, Jawaharlal Nehru University, New Delhi, India. Here, the 11-mercaptoundecanoic acid (11MUA) monolayer on the surface of the gold chip (Autolab) was activated by N-hydroxysuccinimide (NHS; 0.05 M)/[…] (EDC; 0.2 M). EhMySH3 protein (ligand) at a concentration of 37 μM was immobilized in channel 1 on the activated surface of the gold chip in 10 mM sodium acetate buffer (pH 5.0) up to 700 RU. During experimentation, channel 1 was used to pass the analytes (peptides) while channel 2 was used as a blank (the signals of the analyte with a ligand-free surface). After ligand immobilization, the surface was blocked with 100 mM ethanolamine at pH 8.5, followed by regeneration using 50 mM NaOH. The different peptides, each at various concentrations, were each injected at a rate of 20 μl/min across the sensor chip surface and the association kinetics and dissociation kinetics were monitored for 200 s and 100 s, respectively. All of the dilutions were done in running buffer, i.e., 10 mM HEPES, 150 mM NaCl, 3 mM EDTA, 0.05% NP-40 surfactant [pH 7.4].
All of the data were recorded at 25°C. For the evaluation of the kinetics, differential sensorgrams were analyzed using Autolab SPR Kinetic Evaluation software.

[2] = molecular target: filamentous rabbit muscle actin (F-actin) (rabbit) (UniProt P68135); assay: SPR; Autolab SPR; F-actin immobilised (0.67 ng/mm^3; 50 mM sodium acetate pH 4.1, 0.05 mM CaCl2, 0.05 mM ATP, 0.125 mM DTT), cterEhFP10 at various concentrations passed over; 25 C
[3] = molecular target: c-terminal SH3 domain of EhMyosin IB (EhMySH3) (Entamoeba histolytica); assay: SPR; Autolab SPR; EhMySH3 immobilised (1.175 ng/mm^3), cterEhFP10 at various concentrations passed over; association 400 s, dissociation 150 s; 25 C
[4] = molecular target: filamentous rabbit muscle actin (F-actin) (rabbit) (UniProt P68135)
[5] = molecular target: c-terminal SH3 domain of EhMyosin IB (EhMySH3) (Entamoeba histolytica); assay: SPR; Autolab SPR; EhMySH3 immobilised on an 11-MUA gold chip (NHS/EDC, up to 700 RU), peptides injected at 20 ul/min; 10 mM HEPES, 150 mM NaCl, 3 mM EDTA, 0.05% NP-40, pH 7.4; 25 C

## KVAPPIPHR [P2, pseudo-symmetrical class I + II peptide … from EhFP10, co-crystallized with EhMySH3]
[1]
  relative SPR binding response: highest binding response

## NIVPIQPPQ [P3]
[1]
  Kd: 1000 µM

## QHCPNVPII [P5]
[1]
  Kd: 700 µM

## RPQPPTP [P4, class I peptide RPQPPTP from EhFP10]
[1]
  relative SPR binding response: weakest binding

## SLPPKPLR [P1]
[1]
  Kd: 400 µM

## c-terminal domain of EhFP10 (cterEhFP10) (domain or fragment)
[2]
  Kd: 0.087 µM
[3]
  Kd: 0.2 µM
[4]
  thickness of actin bundles by TEM, filaments of 4 nm to 7 nm without and bundles with 10 uM to 20 uM cterEhFP10: 120 nm

## NIVPIQPPQ (not fully specified) [peptide P3 from Rho family GTPase]
[5]
  Kd: 1000 µM

## QHCPNVPII (not fully specified) [peptide P5 from Rho family GTPase]
[5]
  Kd: 700 µM
